pIC50: −log10 of the molar value.

Experiment [1] has as its system hPIV-1 strain C35. The experiment can be described thus: Haemagglutination inhibition (HI) assay with human red blood cells. The class given is biochemical. As to conditions: hPIV1 C35.
Experiment [2] deals with hPIV-3 strain C243. The description is as above. The class given is biochemical. As to conditions: hPIV3 C243.
Experiment [3] deals with hPIV-3 strain CI002 (clinical isolate). The description is as above. The class given is biochemical. Conditions: hPIV3 CI002.
Experiment [4] has as its system hPIV-3 strain JS. The description is as above. Conditions: hPIV3 JS. The class given is biochemical.
Experiment [5] has as its system hPIV-3 strain CI002 (clinical isolate). The experiment can be described thus: In situ ELISA virus growth inhibition in LLC-MK2 cells. The class given is cell-based. As to conditions: Human respirovirus 3, LLC-MK2; hPIV3 CI002.
In experiment [6] the test system is hPIV-3 strain C243. Described as above. The class given is cell-based. Conditions: Human respirovirus 3, LLC-MK2; hPIV3 C243; Table 2.
Experiment [7] deals with hPIV-3 strain JS. The description is as above. The class given is cell-based. Conditions: Human respirovirus 3, LLC-MK2; hPIV3 JS.
The test system of experiment [8] is hPIV-1 strain C35. The experiment can be described thus: In situ ELISA virus growth inhibition. The class given is cell-based. Conditions: hPIV1 C35. On the technique in general: ELISA stands for enzyme-linked immunosorbent assay.

Turning to `CC(=O)N[C@H]1[C@H]([C@H](O)[C@H](O)CO)OC(C(=O)O)=C[C@@H]1n1cc(-c2ccccc2NS(=O)(=O)c2ccc([N+](=O)[O-])cc2)nn1`, the negative-log IC50 (pIC50) (as a rule, the IC50 on a negative log10 scale, so that one unit is a factor of ten) is below 3.70 with hPIV-1 strain C35 [1]; 5.59 with hPIV-3 strain C243 [2]; 4.86 in experiment [3]; 5.35 in the experiment with hPIV-3 strain JS [4]; 4.54 in experiment [5].
`CC(=O)N[C@H]1[C@H]([C@H](O)[C@H](O)CO)OC(C(=O)O)=C[C@@H]1n1cc(-c2ccccc2NC(=O)CNS(=O)(=O)c2cccc([N+](=O)[O-])c2)nn1`: the pIC50 in the experiment with hPIV-1 strain C35 [1] was below 3.70; in experiment [3], 4.35; with hPIV-3 strain JS [4], 4.81; in experiment [5] it was 4.00.
Take `CC(=O)N[C@H]1[C@H]([C@H](O)[C@H](O)CO)OC(C(=O)O)=C[C@@H]1n1cc(-c2ccccc2NC(=O)CNS(=O)(=O)c2ccc([N+](=O)[O-])cc2)nn1`: the pIC50 in the experiment on hPIV-1 strain C35 [1] was below 3.70; in experiment [3] it was 4.62; with hPIV-3 strain JS [4], 5.10; with hPIV-3 strain C243 [6] it was 4.19; in the experiment on hPIV-3 strain JS [7], 3.62; in the experiment with hPIV-1 strain C35 [8], below 3.70.
As for `CC(=O)N[C@H]1[C@H]([C@H](O)[C@H](O)CO)OC(C(=O)O)=C[C@@H]1n1cc(-c2ccccc2NC(=O)CCNS(=O)(=O)c2ccc([N+](=O)[O-])cc2)nn1`, the pIC50 in the experiment with hPIV-1 strain C35 [1] is below 3.70; in experiment [3], below 3.70; with hPIV-3 strain JS [4], 4.41; in experiment [5] it was 3.54.

(Values after patent publication US20220274965A1, “ANTIVIRAL AGENTS AND USES THEREOF” (GRIFFITH UNIVERSITY, priority 2019, published 2022).)
